The source of these data is ChEMBL document CHEMBL1155106, “Progesterone receptor antagonists with a 3-phenylquinazoline-2,4-dione/2-phenylisoquinoline-1,3-dione skeleton” (Bioorg Med Chem, 2008).

pIC50: −log10 of the molar value. Active and inactive are the calls of the source. The rule behind the calls is not given here.

Assay [1] concerns the target T1, Progesterone receptor (Homo sapiens, UniProt P06401).
T1 sequence (P06401 whole entry): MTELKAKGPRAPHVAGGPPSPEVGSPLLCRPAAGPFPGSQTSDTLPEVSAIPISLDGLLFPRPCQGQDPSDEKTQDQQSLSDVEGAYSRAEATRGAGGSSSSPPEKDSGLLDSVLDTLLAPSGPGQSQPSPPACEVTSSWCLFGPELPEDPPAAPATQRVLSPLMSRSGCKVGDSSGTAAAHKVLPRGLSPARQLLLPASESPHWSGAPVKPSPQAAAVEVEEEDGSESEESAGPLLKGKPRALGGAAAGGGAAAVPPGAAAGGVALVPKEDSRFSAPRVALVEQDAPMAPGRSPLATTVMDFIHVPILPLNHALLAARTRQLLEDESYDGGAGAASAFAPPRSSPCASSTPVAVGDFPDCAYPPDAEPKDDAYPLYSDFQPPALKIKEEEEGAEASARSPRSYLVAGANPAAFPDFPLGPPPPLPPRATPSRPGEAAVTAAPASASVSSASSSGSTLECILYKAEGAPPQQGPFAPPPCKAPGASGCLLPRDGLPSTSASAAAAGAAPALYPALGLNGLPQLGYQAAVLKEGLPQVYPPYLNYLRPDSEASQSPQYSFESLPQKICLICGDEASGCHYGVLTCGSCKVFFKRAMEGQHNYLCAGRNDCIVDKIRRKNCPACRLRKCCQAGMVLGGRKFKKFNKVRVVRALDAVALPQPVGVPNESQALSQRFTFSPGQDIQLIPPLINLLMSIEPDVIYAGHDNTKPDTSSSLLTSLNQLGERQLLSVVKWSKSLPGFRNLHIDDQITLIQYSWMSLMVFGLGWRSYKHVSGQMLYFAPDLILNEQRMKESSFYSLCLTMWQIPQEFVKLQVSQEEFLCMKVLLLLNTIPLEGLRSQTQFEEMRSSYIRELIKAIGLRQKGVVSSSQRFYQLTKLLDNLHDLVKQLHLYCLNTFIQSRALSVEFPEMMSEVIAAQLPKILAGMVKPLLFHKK
The assay is described as follows: Antagonist activity at progesterone receptor in human T47D cells assessed as inhibition of progesterone-induced alkaline phosphatase activity. Type of assay: functional, cell-based.

In assay [2] the target is T1, Progesterone receptor. Description: Antagonist activity at human progesterone receptor expressed in CHO cells assessed as […] luciferase activity by reporter gene assay. Type of assay: functional, cell-based. In general terms: A reporter such as luciferase makes a cellular process visible.
Assay [3] deals with T2, Progesterone receptor (Homo sapiens) (UniProt P06401).
T2 sequence (whole entry): T1 sequence (P06401 whole entry)
Description: Agonist activity at human progesterone receptor expressed in CHO cells assessed as […] luciferase activity by reporter gene assay. Type of assay: functional, cell-based.

In assay [4] the target is T2, Progesterone receptor (Homo sapiens). The assay is described as follows: Agonist activity at progesterone receptor in human T47D cells assessed as induction of alkaline phosphatase activity.
The target is the same in assay [5]. Description: Antagonist activity at progesterone receptor in human T47D cells assessed as inhibition of progesterone-induced alkaline phosphatase activity at 100 uM. Type of assay: functional, cell-based.
The target of assay [6] is T3, Androgen receptor (Homo sapiens) (UniProt P10275).
T3 sequence (whole entry): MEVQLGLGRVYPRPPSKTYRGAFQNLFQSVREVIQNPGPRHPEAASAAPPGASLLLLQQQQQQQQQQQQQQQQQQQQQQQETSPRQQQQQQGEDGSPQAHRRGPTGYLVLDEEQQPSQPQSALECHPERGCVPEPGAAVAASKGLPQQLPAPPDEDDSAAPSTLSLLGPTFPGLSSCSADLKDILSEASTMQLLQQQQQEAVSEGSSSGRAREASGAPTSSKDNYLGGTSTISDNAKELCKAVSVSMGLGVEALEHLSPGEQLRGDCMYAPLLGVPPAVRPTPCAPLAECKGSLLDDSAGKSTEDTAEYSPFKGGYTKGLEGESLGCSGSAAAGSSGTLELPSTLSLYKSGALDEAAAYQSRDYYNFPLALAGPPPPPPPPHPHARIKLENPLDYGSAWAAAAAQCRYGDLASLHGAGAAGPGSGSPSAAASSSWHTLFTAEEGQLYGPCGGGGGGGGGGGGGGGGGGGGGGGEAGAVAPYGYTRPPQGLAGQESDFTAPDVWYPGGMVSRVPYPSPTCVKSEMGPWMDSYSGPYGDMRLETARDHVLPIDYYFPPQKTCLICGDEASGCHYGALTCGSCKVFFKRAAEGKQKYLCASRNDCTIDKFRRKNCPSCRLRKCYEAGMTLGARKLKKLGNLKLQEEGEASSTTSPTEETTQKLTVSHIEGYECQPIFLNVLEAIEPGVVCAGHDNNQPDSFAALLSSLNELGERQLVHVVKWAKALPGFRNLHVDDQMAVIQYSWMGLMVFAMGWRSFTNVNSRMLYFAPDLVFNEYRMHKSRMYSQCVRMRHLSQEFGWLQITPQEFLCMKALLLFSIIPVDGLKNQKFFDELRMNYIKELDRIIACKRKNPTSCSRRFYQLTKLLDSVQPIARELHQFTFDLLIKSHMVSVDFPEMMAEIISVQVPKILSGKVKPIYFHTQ
Description: Displacement of [3H]testosterone from androgen receptor expressed in human T47D cells. Type of assay: cell-based. (Displacement assays read how much labelled ligand stays bound in the presence of the test substance.)

The target in assay [7] is T4, Estrogen receptor (Homo sapiens) (UniProt P03372).
T4 sequence (whole entry): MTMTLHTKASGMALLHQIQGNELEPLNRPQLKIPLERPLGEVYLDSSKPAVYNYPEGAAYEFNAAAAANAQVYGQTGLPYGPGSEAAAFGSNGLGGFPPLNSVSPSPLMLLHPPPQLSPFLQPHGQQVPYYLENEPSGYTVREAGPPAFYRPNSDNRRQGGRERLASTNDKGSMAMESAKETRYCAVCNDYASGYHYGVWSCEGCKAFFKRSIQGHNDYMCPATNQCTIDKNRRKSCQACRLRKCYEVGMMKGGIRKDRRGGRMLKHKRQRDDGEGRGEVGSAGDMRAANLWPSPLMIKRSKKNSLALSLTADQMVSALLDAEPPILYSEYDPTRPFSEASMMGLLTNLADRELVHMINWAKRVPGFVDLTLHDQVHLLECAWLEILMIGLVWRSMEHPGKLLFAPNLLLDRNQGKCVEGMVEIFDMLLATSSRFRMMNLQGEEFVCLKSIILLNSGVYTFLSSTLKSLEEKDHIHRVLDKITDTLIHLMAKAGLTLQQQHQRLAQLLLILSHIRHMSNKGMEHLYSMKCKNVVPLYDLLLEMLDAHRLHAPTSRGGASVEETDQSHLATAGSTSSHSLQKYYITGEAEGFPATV
Description: Displacement of [3H]estradiol from estrogen receptor expressed in human T47D cells. Type of assay: cell-based.

Assay [8] deals with T2, Progesterone receptor (Homo sapiens). The assay is described as follows: Antagonist activity at human progesterone receptor expressed in CHO cells assessed as inhibition of progesterone-induced luciferase activity by reporter gene assay at 100 uM. Type of assay: functional, cell-based.

A word on the pIC50: it is −log10 of the IC50, conventionally taken in molar units. Take `Cc1ccc(N2C(=O)c3ccccc3C(C)(C)C2=O)cc1`: the values for the pIC50 in assay [1] and in assay [2] were 5.09 and 5.05, respectively.
The like results for `CCC1(CC)C(=O)N(c2ccc(Cl)cc2)C(=O)c2ccccc21` were, in that order, 6.60 and 6.55.
The like results for `C=CCC1(CC=C)C(=O)N(c2ccc(Cl)cc2)C(=O)c2ccccc21` were, in that order, 6.40 and 6.07.
As for `Cn1c(=O)n(-c2ccccc2)c(=O)c2ccccc21`, the outcome in assay [3] and in assay [4] was inactive. Further, the pIC50 in assay [1] is 4.08.
Usually inhibition stands for the change of the read-out against control, counted positive when it falls. Turning to `O=C1CCC(N2C(=O)c3ccc(O)cc3C2=O)C(=O)N1O` (stereo not drawn), in assay [5], the inhibition came out at 53.7%.
In the case of `C=CCC1(CC=C)C(=O)N(c2ccc(C#N)cc2)C(=O)c2ccccc21`, the pIC50 is 6.96 in assay [1] and 6.82 in assay [2].
For the compound `CC1(C)C(=O)N(c2ccc(Cl)cc2)C(=O)c2ccccc21`, the pIC50 in assay [1] was 5.89; in assay [2], 5.48.
As to `CCCn1c(=O)n(-c2ccccc2)c(=O)c2ccccc21`, the outcome in assay [3] and in assay [4] was inactive. The pIC50 in assay [1] is 4.64; in assay [2], 4.74.
Consider `CC1(C)C(=O)N(c2ccccc2Cl)C(=O)c2ccccc21`, for which the pIC50 in assay [1] is 5.39; in assay [2], 5.31.
As for `CCC1(CC)C(=O)N(c2ccc(C#N)cc2)C(=O)c2ccccc21`, the result in assay [6] and in assay [7] was inactive. The pIC50 is 7.13 in assay [1] and 7.11 in assay [2].
As for `O=C1CCC(N2C(=O)c3ccccc3C2=O)C(=O)N1O` (stereo not drawn), the inhibition in assay [5] is 42.5%.
On to `CC1(C)C(=O)N(c2ccccc2F)C(=O)c2ccccc21`, for which the pIC50 in assay [1] was 4.89; in assay [2] it was 5.00.
`O=C1CCC(N2C(=O)c3cccc(O)c3C2=O)C(=O)N1O` (stereo not drawn): in assay [5], the inhibition was 30.7%.
Take `O=C1Cc2ccccc2C(=O)N1c1ccccc1`: the inhibition in assay [5] was 25%; in assay [8] it was 38%.
Turning to `CCCC1(CCC)C(=O)N(c2ccc(Cl)cc2)C(=O)c2ccccc21`, the pIC50 in assay [1] was 5.96; in assay [2] it was 6.00.
Regarding `CC1(C)C(=O)N(c2ccc(F)cc2)C(=O)c2ccccc21`, the negative logarithm of the IC50 (pIC50) in assay [1] is 5.17; in assay [2], 5.05.
With `CCn1c(=O)n(-c2ccccc2)c(=O)c2ccccc21`, the outcome in assay [3] and in assay [4] was inactive. The results for the pIC50 in assay [1] and in assay [2] were 4.52 and 4.47, respectively.
With `O=C1CCC(N2C(=O)c3ccccc3C2=O)C(=O)N1` (stereo not drawn), the outcome in assay [5] was inactive.
Regarding `N#Cc1ccc(N2C(=O)c3ccccc3C3(CCCCC3)C2=O)cc1`, the pIC50 in assay [1] is 6.06; in assay [2], 6.35.
The like results for `CCCC1(CCC)C(=O)N(c2ccc(C#N)cc2)C(=O)c2ccccc21` were, in that order, 6.92 and 6.85.
As for `N#Cc1ccc(N2C(=O)c3ccccc3C3(CCCC3)C2=O)cc1`, the pIC50 was 5.92 in assay [1] and 6.16 in assay [2].
For `CC1(C)C(=O)N(c2cccc(F)c2)C(=O)c2ccccc21`, the pIC50 in assay [1] is 5.00; in assay [2] it was 4.96.
Consider `O=c1c2ccccc2n(Cc2ccccc2)c(=O)n1-c1ccccc1`, for which the result in assay [3] and in assay [4] was inactive. Also, the pIC50 was 4.96 in assay [1] and 4.82 in assay [2].
On to `O=C1CC(O)C(N2C(=O)c3ccccc3C2=O)C(=O)N1` (stereo not drawn), for which the inhibition in assay [5] was found to be 30.6%.
On to `CC1(C)C(=O)N(c2ccc(C#N)cc2)C(=O)c2ccccc21`, for which the pIC50 in assay [1] is 5.80; in assay [2], 5.74.
Consider `O=C1CC(O)C(N2C(=O)c3ccc(O)cc3C2=O)C(=O)N1` (stereo not drawn), for which, in assay [5], the inhibition came to 29.4%.
For the compound `CC1(C)C(=O)N(c2ccccc2)C(=O)c2ccccc21`, the pIC50 in assay [1] is 4.70; in assay [2], 4.59.
The like results for `CC1(C)C(=O)N(c2cccc(Cl)c2)C(=O)c2ccccc21` were, in that order, 5.47 and 5.24.
On the same counts, the results for `O=C1c2ccccc2C2(CCCC2)C(=O)N1c1ccc(Cl)cc1` are 5.89 and 5.68.
Turning to `COc1ccc(N2C(=O)c3ccccc3C(C)(C)C2=O)cc1`, the pIC50 in assay [1] is 4.96; in assay [2] it was 4.77.
Turning to `O=c1[nH]c2ccccc2c(=O)n1-c1ccccc1`, the outcome in assay [3] and in assay [4] was inactive. The inhibition in assay [5] turned out to be 34%.
For the compound `O=C1c2ccccc2C2(CCCCC2)C(=O)N1c1ccc(Cl)cc1`, the figures for the pIC50 in assay [1] and in assay [2] were 5.96 and 5.82, respectively.
